Converted amounts (≈) assume the structure as drawn. Where a SMILES comes first, the peptide text is derived from it.
What was measured:
E. faecium = test: microbe, parasite or virus in culture; type: cell-based, Enterococcus faecium
Protocol: (§1) Quantification of the antimicrobial resistance against various AMPs was carried out by measuring the bacterial growth in the presence of peptides at serial dilutes in 96 well plates in a microplate (96-well plate) reader Infinite® M200 PRO Multimode Microplate Reader (Tecan, Maennedorf, Switzerland) according to our recent reports. All bacterial strains were incubated at 32 °C for 13–18 h at 200 rpm. Optical density measurements (λ = 550 nm) were taken automatically at 10 min intervals. Antimicrobial resistance activity was quantified as the minimum inhibitory concentration (MIC)—the lowest concentration of a peptide which prevents growth of bacterial cells.

S. aureus = test: microbe, parasite or virus in culture; type: cell-based, Staphylococcus aureus
Protocol: as §1

[1] = system: BALB/c 3T3 murine fibroblast cell line; test: Cytotoxicity, neutral red uptake assay; type: cell-based
Excerpt: (§2) The BALB/c 3T3 murine fibroblast cell line was obtained from ATCC (American Type Culture Collection, Manassas, VA, USA). Primary human dermal fibroblasts were isolated by enzymatic digestion from skin biopsies in the Laboratory of Bioanalytical and Biodosimetry Methods, University of Latvia, in accordance with the approval of the Committee of Research Ethics of the Institute of Cardiology and Regenerative Medicine, University of Latvia. Cells were propagated in DMEM medium (Sigma, Irvine, UK), supplemented with 1% penicillin (100 U/mL)–streptomycin (100 μg/mL), and 10% calf serum (Sigma, St. Louis, MO, USA) for Balb/c 3T3 cell line and fetal bovine serum (Sigma, St. Louis, MO, USA) for primary dermal fibroblasts. All cultivations were performed in a humidified 5% CO2 atmosphere at 37 °C.
(§3) The cytotoxicity of the peptides was tested in the BALB/c3T3 cell line and primary dermal fibroblasts by the neutral red (NR) uptake assay. Cells were seeded in 96-well plates at a density of 5 × 10^3 cells per well. After 24 h of incubation, peptides in a concentration range of 3.9 to 500 μg/mL were added. Dilutions were made in a cell cultivation medium. Cultivation in the presence of extracts was performed for 48 h. Afterwards, plates were washed with phosphate-buffered saline (PBS) (Sigma, Irvine, UK), and a 25 µg/mL NR solution (Sigma, Irvine, UK) diluted in 5%-fetal-calf-serum-containing-media was added. After 3 h, incubation in a humidified 5% CO2 atmosphere at 37 °C, the plate was washed with PBS, and the NR taken up by viable cells was extracted using desorbing fixative (50% ethanol/1% acetic acid/49% water). Absorbance at 540 nm was measured using a microplate reader Tecan Infinite® 200 PRO (Tecan Group Ltd., Mannedorf, Switzerland). Cytotoxicity was expressed as a concentration-dependent reduction in the uptake of NR, compared to the untreated controls and calculated using the following equation: Cell viability (%)=Abs540nm(treatment)−Abs540nm(background)/Abs540nm(untreated control)−Abs540nm(background)×100%

K. pneumonia = test: microbe, parasite or virus in culture; type: cell-based, Klebsiella pneumoniae
Protocol: as §1

[2] = system: primary human dermal fibroblasts; type: cell-based; conditions: 48 h
Excerpt: as §2, §3

[3] = system: fresh human blood (red blood cell lysis); test: Hemolysis assay; type: cell-based; conditions: for hemolysis ratio (HR): red cells of human, 1 h
Protocol: A hemolysis test was performed to assess the hemocompatibility of the peptides. Blood from healthy donors was collected in Monovette vacutainers containing Ethylenediamine tetra-acetic acid (EDTA). Blood was diluted with 0.9% sodium chloride solution supplemented with 10 U/mL heparin (4:5 ratio by volume). Peptides were added to 1.5 mL vials containing fresh 0.49 mL PBS and incubated at 37 °C and 5% CO2 for 30 min, and 10 μL of diluted blood was added to each vial and incubated at 37 °C and 5% CO2 for 1 h. PBS was used as a negative control and deionized water was used as a positive control. After incubation tubes were centrifuged at 3000 rpm for 5 min, the supernatants were collected, and the absorbance was measured at a wavelength of 545 nm in a microplate reader Tecan Infinite® 200 PRO (Tecan Group Ltd., Mannedorf, Switzerland).
The hemolytic ratio (HR) was calculated by the following equation: HR (%)=(Abs(sample)−Abs(negative control))/(Abs (positive control−Abs(negative control))×100%

C. acnes = test: microbe, parasite or virus in culture; type: cell-based, Cutibacterium acnes
Protocol: as §1

E. coli = test: microbe, parasite or virus in culture; type: cell-based, Escherichia coli
Protocol: as §1

P. aeruginosa = test: microbe, parasite or virus in culture; type: cell-based, Pseudomonas aeruginosa
Protocol: as §1

Row | SMILES | MIC E. faecium (E. faecium) [µg/mL] | MIC S. aureus (S. aureus) [µg/mL] | IC50, viability of Balb/c 3T3 cells ([1]; 48 h) [µg/mL] | MIC K. pneumonia (K. pneumonia) [µg/mL] | IC50, viability of human primary dermal fibroblasts [2] [µg/mL] | MIC C. acnes (C. acnes) [µg/mL] | MIC E. coli (E. coli) [µg/mL] | MIC P. aeruginosa (P. aeruginosa) [µg/mL] | Therapeutic Index C. acnes (C. acnes) | Therapeutic Index E. faecium (E. faecium) | Therapeutic Index S. aureus (S. aureus) | Therapeutic Index K. pneumonia (K. pneumonia) | hemolytic activity [3] | Therapeutic Index E. coli (E. coli) | Therapeutic Index P. aeruginosa (P. aeruginosa) | other results
1 | CC(C)C[C@H](NC(=O)[C@H](C)NC(=O)[C@H](CCCCN)NC(=O)[C@H](CC(C)C)NC(=O)[C@H](C)NC(=O)[C@H](CCCCN)NC(=O)[C@H](CC(C)C)NC(=O)[C@H](CC(C)C)NC(=O)[C@H](C)NC(=O)[C@H](CCCCN)NC(=O)[C@H](CC(C)C)NC(=O)[C@H](C)NC(=O)[C@H](CCCCN)NC(=O)[C@H](C)NC(=O)[C@@H](N)Cc1ccccc1)C(=O)O [Oligo10] (H-FAKALKALLKALKAL-OH) | 16.0 (≈ 10 µM) | 4.0 (≈ 2.5 µM) | 218.21 | 63.0 (≈ 39.4 µM) | 241.54 | 2.0 (≈ 1.25 µM) | 16.0 (≈ 10 µM) | 63.0 (≈ 39.4 µM) | – | – | – | – | – | – | – | concentration with mild hemolytic activity [3]: 16000 ng/mL
2 | CC[C@H](C)[C@H](NC(=O)[C@H](Cc1ccccc1)NC(=O)[C@H](CCCCN)NC(=O)[C@H](CCCCN)NC(=O)[C@H](Cc1ccccc1)NC(=O)[C@H](CCCCN)NC(=O)[C@H](CCCCN)NC(=O)[C@H](C)NC(=O)[C@H](Cc1ccccc1)NC(=O)[C@H](CCCCN)NC(=O)[C@H](CCCCN)NC(=O)[C@@H](NC(=O)[C@@H](N)Cc1ccccc1)[C@@H](C)CC)C(=O)N[C@@H](CCCCN)C(=O)N[C@@H](CCCCN)C(=O)N[C@@H](Cc1ccccc1)C(=O)N[C@@H](C)C(=O)N[C@@H](CCCCN)C(=O)N[C@@H](Cc1ccccc1)C(=O)N[C@@H](C)C(=O)N[C@@H](Cc1ccccc1)C(=O)N[C@@H](C)C(=O)N[C@@H](Cc1ccccc1)C(=O)O [Peptide R1] (H-FIKKFAKKFKKFIKKFAKFAFAF-OH; N-terminus and C-terminus assumed) | 16.0 (≈ 5.6 µM) | 8.0 (≈ 2.8 µM) | 63.84 | 4.0 (≈ 1.4 µM) | 128.07 | 2.0 (≈ 0.699 µM) | 8.0 (≈ 2.8 µM) | 8.0 (≈ 2.8 µM) | 64.04 | – | – | – | – | – | – | decrease of cell viability ([1]; Balb/c 3T3, at 15.63 μg/mL and above): more than 62%
3 | CC[C@H](C)[C@H](NC(=O)[C@H](CCCCN)NC(=O)[C@@H](N)CCCCN)C(=O)N[C@@H](C)C(=O)N[C@@H](CCCCN)C(=O)N[C@@H](CCCCN)C(=O)N[C@@H](Cc1ccccc1)C(=O)N[C@@H](Cc1c[nH]c2ccccc12)C(=O)N[C@@H](CCCCN)C(=O)N[C@@H](CCCCN)C(=O)N[C@@H](Cc1ccccc1)C(=O)N[C@@H](Cc1c[nH]c2ccccc12)C(=O)N[C@@H](CCCCN)C(=O)N[C@@H](Cc1ccccc1)C(=O)N[C@@H](Cc1c[nH]c2ccccc12)C(=O)N[C@@H](CCCCN)C(=O)N[C@H](C(=O)N[C@@H](Cc1ccccc1)C(=O)N[C@@H](CCCCN)C(=O)N[C@@H](CCCCN)C(=O)O)[C@@H](C)CC [Peptide R10] (H-KKIAKKFWKKFWKFWKIFKK-OH) | 4.0 (≈ 1.46 µM) | 4.0 (≈ 1.46 µM) | 86.99 | 8.0 (≈ 2.91 µM) | 38.19 | 0.5 (≈ 0.182 µM) | – | 2.0 (≈ 0.729 µM) | 76.38 | 9.55 | 9.55 | 4.77 | strong hemolytic activity | 19.1 | 19.1 | –
4 | CC(C)C[C@H](NC(=O)[C@H](CS)NC(=O)[C@H](Cc1ccccc1)NC(=O)[C@@H](N)CCCCN)C(=O)N[C@@H](CCCCN)C(=O)N[C@@H](Cc1ccccc1)C(=O)N[C@@H](CS)C(=O)N[C@@H](Cc1ccccc1)C(=O)N[C@@H](CCCCN)C(=O)NCC(=O)N[C@@H](Cc1ccccc1)C(=O)N[C@@H](CS)C(=O)N[C@@H](Cc1ccccc1)C(=O)N[C@@H](CCCCN)C(=O)N[C@@H](C)C(=O)N[C@@H](CS)C(=O)NCC(=O)N[C@@H](CCCCN)C(=O)O [Peptide R11] (H-KFCLKFCFKGFCFKACGK-OH; N-terminus and C-terminus assumed) | – | – | – | – | – | 0.3 (≈ 0.142 µM) | – | – | 356.7 | 6.7 | 6.7 | 1.7 | – | 0.9 | 1.7 | concentrations not cytotoxic ([1]; Balb/c 3T3, neutral red uptake, 48 h, tested 3.9–500 μg/mL): 3900 ng/mL; hemolysis ratio (HR) ([3]; 32 μg/mL): below 2%; hemolysis ratio (HR) ([3]; 64 μg/mL): 2.85–7.03%
5 | CC[C@H](C)[C@H](NC(=O)[C@H](CCCCN)NC(=O)[C@@H](N)CCCCN)C(=O)N[C@@H](C)C(=O)N[C@@H](CCCCN)C(=O)N[C@@H](CCCCN)C(=O)N[C@@H](Cc1ccccc1)C(=O)N[C@@H](Cc1c[nH]c2ccccc12)C(=O)N[C@@H](CCCCN)C(=O)N[C@@H](CCCCN)C(=O)N[C@@H](Cc1ccccc1)C(=O)N[C@@H](Cc1c[nH]c2ccccc12)C(=O)N[C@@H](CCCCN)C(=O)N[C@@H](Cc1ccccc1)C(=O)N[C@@H](Cc1c[nH]c2ccccc12)C(=O)N1CCC[C@H]1C(=O)N[C@@H](CCCCN)C(=O)N[C@@H](Cc1ccccc1)C(=O)N[C@@H](Cc1c[nH]c2ccccc12)C(=O)N[C@@H](CCCCN)C(=O)N[C@H](C(=O)N[C@@H](Cc1ccccc1)C(=O)N[C@@H](CCCCN)C(=O)N[C@@H](CCCCN)C(=O)O)[C@@H](C)CC [Peptide R14] (H-KKIAKKFWKKFWKFWPKFWKIFKK-OH) | 8.0 (≈ 2.42 µM) | 8.0 (≈ 2.42 µM) | 21.07 | 4.0 (≈ 1.21 µM) | – | 1.0 (≈ 0.303 µM) | 16.0 (≈ 4.84 µM) | 4.0 (≈ 1.21 µM) | – | 4.4 | 4.4 | 8.8 | strong hemolytic activity | 2.2 | 8.8 | hemolysis ratio (HR) [3]: > 5%

Source: PMC10044245, “Comparative Evaluation of Existing and Rationally Designed Novel Antimicrobial Peptides for Treatment of Skin and Soft Tissue Infections” (Antibiotics, 2023)
